Measured values as given in patent publication US8765688B2, “Anti-dandruff compositions containing peptides” (priority 2007, dated 2014).
Ends that are not written are not given here.

Tests used:
E. coli cells = experiment: Biodegradability of P18: chymotrypsin digestion, then antimicrobial activity on E. coli cells; assay type: cell-based, Escherichia coli; settings: for optical density at 620 nm in two independent experiments: aqueous P18 solution 10 μM, undigested, cell gives both experiments
Protocol: Firstly, the peptide P18 was digested by adding chymotrypsin (from bovine pancreas, Sigma). For this, a 1 mM P18 solution was prepared and treated in accordance with the manufacturer's instructions. The samples were incubated for 16 hours at 37° C. The negative control used was a sample of a P18 solution without addition of chymotrypsin or a control solution which comprised only chymotrypsin, but no P18. The antimicrobial activity of P18 on E. coli cells was then investigated. The test was carried out as described in Example 3.
(§1) The growth of the following mixtures was compared by measuring the optical density:
(§2) E. coli suspension without the addition of an inhibitor.
E. coli suspension and addition of an aqueous P18 solution with a final concentration of 10 μM. The P18 solution had been stored beforehand for 16 hours at 37° C.
E. coli suspension and addition of an aqueous P18 solution with a final concentration of 10 μM. The P18 solution had been stored beforehand in accordance with the manufacturer's instructions for 16 hours at 37° C. and treated with chymotrypsin.
E. coli suspension and addition of an aqueous chymotrypsin solution which comprised, as control, the same amount of chymotrypsin as the P18 solution which was digested with chymotrypsin. This solution too had been stored beforehand for 16 hours at 37° C. This mixture was chosen in order to exclude an antimicrobial effect of the chymotrypsin.
The growth was observed over a period of 16 hours by measuring the optical density.

Escherichia coli = experiment: Long-term stability of P18 (2 weeks at 37° C.), detected through inhibition of the growth of Escherichia coli; assay type: cell-based; settings: for optical density at 620 nm: 25 μM
Protocol: The long-term stability of P18 was observed over a period of 2 weeks. For this, a 1 mM P18 solution in water was incubated at 37° C. over the entire period. At the start of the experiment and then on these two weeks, the antimicrobial activity was detected through inhibition of the growth of Escherichia coli. The growth medium used here was LB medium as complex medium. The medium comprised 10 g of trypton, 5 g of yeast extract and 10 g of NaCl per liter.
The growth test was carried out as follows: A shake flask of LB medium was inoculated with Escherichia coli and incubated overnight with shaking at 37° C. and 200 rpm. A 96-well microtiter plate was filled with in each case 100 μl of LB medium and inoculated with E. coli suspension of the overnight culture. The E. coli suspension was adjusted at the start of the experiment to an optical density, measured at 620 nm, of about 0.02. The concentrates of the P18 inhibitor solutions were 1 mM in water.
as §1, §2
E. coli suspension and addition of an aqueous P18 solution with a final concentration of 25 μM. The aqueous P18 solution had been freshly prepared.
E. coli suspension and addition of an aqueous P18 solution with a final concentration of 25 μM. The aqueous stock solution had been incubated for 2 weeks at 37° C.
The growth was observed over a period of 40 hours by measuring the optical density.

Malassezia furfur = experiment: Long-term stability of P18 in shampoo basic formulations (40° C.) tested on M. furfur, CFU; assay type: cell-based; settings: stored at 40° C., 0; 12 and 22 days
Protocol: Long-term stability of the peptide P18 (H-KWKLFKKIPKFLHLAKKF-NH2; carboxy-terminal end amidated) in shampoo basic formulations was tested.
The following shampoo basic formulations were prepared:
The components Texapon NSO and Tego Betain L7 were mixed and dissolved. The pH was adjusted to pH 6-7 with NaOH. In the following, 100 mM of aqueous P18 peptide solution were prepared. A corresponding volume of 100 mM P18 peptide solution was added to each formulation in order to obtain peptide P18 final concentrations as indicated in table 15.
The formulations were stored at 40° C.
After 0; 12 and 22 days, the effect of the formulations against M. furfur was analyzed.
Growth medium: M472-Pityrosporum medium according to DSMZ
The components were sterilized at 121° C., 1 bar superatmospheric pressure for 20 minutes.
2 g/L of olive oil (sterilized by filtration and, after autoclaving, added to the other components) […]
A 96-well microtiter plate was filled with in each case 100 μl of M472-Pityrosporum medium and inoculated with M. furfur suspension of the overnight culture. The M. furfur suspension was adjusted at the start of the experiment to an optical density, measured at 600 nm, of 0.1. […]
After 24 hours, the colony-forming units (CFU) were determined. For this, 1 μl and 10 μl were plated out from each of the suspensions and, after incubation for 6 days, the colonies were counted.

## KWKLFKKIPKFLHLAKKF-NH2 [P18, KWKLFKKIPKFLHLAKKF-NH2]
E. coli cells; incubation time 0 h
  optical density at 620 nm in two independent experiments: 0-0
E. coli cells; incubation time 16 h
  optical density at 620 nm in two independent experiments: 0.01-0.09
E. coli cells; chymotrypsin, 16 hours at 37° C.
  biodegradability (protease digestion): digestion of P18 with a serine protease, such as, for example, chymotrypsin, is possible
Escherichia coli; 1 mM solution in water, 2 weeks at 37° C.
  antimicrobial activity after storage (long-term stability): unchanged
Escherichia coli; fresh aqueous P18 solution, incubation time 0 h
  optical density at 620 nm: 0.098
Escherichia coli; fresh aqueous P18 solution, incubation time 16 h
  optical density at 620 nm: 0
Escherichia coli; fresh aqueous P18 solution, incubation time 24 h
  optical density at 620 nm: 0
Escherichia coli; fresh aqueous P18 solution, incubation time 40 h
  optical density at 620 nm: 0
Escherichia coli; stored aqueous P18 solution (2 weeks at 37° C.), incubation time 0 h
  optical density at 620 nm: 0.081
Escherichia coli; stored aqueous P18 solution (2 weeks at 37° C.), incubation time 16 h
  optical density at 620 nm: 0
Escherichia coli; stored aqueous P18 solution (2 weeks at 37° C.), incubation time 24 h
  optical density at 620 nm: 0
Escherichia coli; stored aqueous P18 solution (2 weeks at 37° C.), incubation time 40 h
  optical density at 620 nm: 0
Malassezia furfur
  long-term stability in shampoo basic formulations (in words): stable characteristics
